Earlier results on 2 compounds are cited in patent US6451782B1, “Use of 4-androstene-3alpha,17 beta-diol to increase testosterone levels in humans” (priority 2002, dated 2002).

Read-outs that look alike come from different tables or passages of the source.

The conditions of data set [1]: in-vitro, rat liver preparations.
The conditions of data set [2]: humans, intravenous, radio-labeled, urinary metabolites.
For data set [3] the following is noted: in-vitro, chicken liver preparations.
For data set [4] the following is noted: humans.

Regarding `C[C@]12CC[C@H]3[C@@H](CCC4=C[C@H](O)CC[C@@]43C)[C@@H]1CC[C@@H]2O` [4-androstene-3alpha, 17beta-diol], the identified metabolites entry in data set [1] is “androstenedione, epitestosterone and testosterone”. Besides, in data set [2], the “metabolic relationship to testosterone” value is “direct precursor relationship to testosterone” and the “pathway of metabolism to androstane metabolites” value is reported as “involved first its conversion to a 3-keto steroid”. Moreover, the identified metabolites result in data set [3] was “androstenedione, epitestosterone and testosterone”.

As to `C[C@]12CC[C@H]3[C@@H](CCC4=CC(O)CC[C@@]43C)[C@@H]1CC[C@@H]2O` (stereo partly drawn) [4-androstene-3,17beta-diol], the identified metabolites entry in data set [1] is “androstenedione, epitestosterone and testosterone”; in data set [3], “androstenedione, epitestosterone and testosterone”. Also, in data set [4] (after administration of the precursor), the “time to peak concentration of active hormone (testosterone)” value was no more than 90 min. Moreover, in data set [4] (after the peak), the “period over which testosterone concentrations subsequently decline” value is recorded as “three to four”. The “metabolic relationship to testosterone” value in data set [2] is recorded as “direct precursor relationship to testosterone”.
